{"source": "paper PMC8979682", "about": "“Synthesis, Antioxidant, and Antidiabetic Activities of Ketone Derivatives of Succinimide” (Evidence-based Complementary and Alternative Medicine : eCAM, 2022)", "key": {"DPPH scavenging activity": {"assay": "DPPH scavenging activity", "format": "biochemical", "protocol": "The antioxidant assay of the synthesized compounds was conducted following the previously reported method. A freshly prepared DPPH solution (50 μL of 1.0 × 10^−3 M) was added in methyl alcohol. Methanol was used as a control in this experiment. The prepared mixture was subjected to incubation at 25°C for 30 min. A decrease in the DPPH free radical concentration was calculated using a spectrophotometer at a wavelength of 517 nm. After incubation ascorbic acid was used as a positive control. The antioxidant activity was determined as a percent (%) of inhibition using the formula given:(1) percent inhibition=absorbancecontrol−absorbancesample/absorbancecontrol×100."}, "α-amylase": {"biological_target": "α-amylase", "assay": "in vitro α-amylase inhibition", "format": "biochemical", "protocol": "The starch solution was added, following incubation of the mixture, and the reaction mixture thus prepared was kept in water bath at 100°C for some time. Microplate reader measured the intensity of the color at 656 nm. Following formula was used to determine percentage inhibition:(3) percent inhibition=absorbancecontrol−absorbancesample/absorbancecontrol×100."}, "mice": {"tested_on": "mice", "assay": "oral glucose tolerance test (OGTT)", "format": "in vivo", "conditions": "glucose 2 g/kg orally", "protocol": "To perform OGTT mice fasted overnight were used including both control and treated mice. Glucose was administered orally at the dose of 2 g/kg against glibenclamide as standard drug. After administration of glucose, blood glucose level was calculated at time intervals of 0, 30, 60, and 120 min for assessment of the impact of exogenously given D-glucose on treated mice. OGTT was carried out 5 days before the completion of the study.\nTo perform OGTT, mice fasted overnight were used including both control and treated mice. Glucose was administered orally at the dose of 2 g/kg against glibenclamide as a standard drug. After administration of glucose, blood glucose level was calculated at time intervals of 0, 30, 60, and 120 min for assessment of the impact of exogenously given D-glucose on treated mice."}, "α-glucosidase": {"biological_target": "α-glucosidase", "assay": "in vitro α-glucosidase inhibition", "format": "biochemical", "protocol": "For in vitro α-glucosidase activity, samples were prepared by adding glucopyranoside to phosphate buffer solvent, and different concentrations of the synthesized compounds (31.25, 62.5, 125, 250, and 500 µg/ml), respectively, were added to this solution and then the enzyme glucosidase in distilled water (0.5 µg/ml) was also added to the above mixture. The reaction mixture thus prepared was subjected to incubation at 37°C for 20 minutes. The reaction was halted by adding HCl after incubation of the mixture. The intensity of the color was determined at 540 nm by spectrophotometer, and the formula given below was used for the determination of percent inhibition:(2) percent inhibition=absorbancecontrol−absorbancesample/absorbancecontrol×100."}, "[1]": {"tested_on": "diabetic mice (by alloxan)", "assay": "antidiabetic activity in diabetic mice (by alloxan)", "format": "in vivo", "protocol": "Alloxan was used for the induction of diabetes mellitus according to reported procedure. Recently prepared Alloxan (ALX) was injected intraperitoneally to animals, fasting for 16 h, at a single dose of (150 mg/kg). […] Only diabetic animals, having random blood glucose level more than 200 mg/dl, were selected for studies. All the experimental procedure were approved from the ethical committee department of pharmacy, University of Swabi via letter No; UOS-06/2021.\nA total of 30 animals were used to determine the hypoglycemic effect of the synthesized derivatives of succinimide. The experimental animals were segregated in six groups […], having five (5) animals in each group. Group I was designated as normal group and was given normal saline I/P only. Group II was given Tween 80, and Group III was given standard drug (glibenclamide) after the induction of diabetes. Group IV, Group V, and Group VI were given the various doses of synthesized compounds, respectively. […]"}, "ABTS scavenging activity": {"assay": "ABTS scavenging activity", "format": "biochemical", "protocol": "For the determination of the antioxidant activity of the synthesized compounds, the previously reported method for ABTS scavenging activity was used with slight modification. The stock solution of 2.4 mM of potassium per sulfate solution and 7 mM ABTS solution was prepared by mixing them in equal volumes for 16 h. The stock solution thus prepared was diluted using methyl alcohol to give absorption of 0.7 ± 0.02 units when studied at the wavelength of 734 nm using a spectrophotometer. Fresh ABTS solution was prepared for each ABTS scavenging assay. About 150 μL of the ABTS working solution was added to 50 μL of synthesized compounds and kept in darkness for 10 min. […] Methanol was used as blank, and standard ascorbic acid was run at the same time. The absorbance was calculated utilizing a microplate reader at 734 nm."}}, "data": [{"smiles": "O=C1CCCCC1C1CC(=O)N(c2ccc(Br)cc2)C1=O", "note": "(stereo not drawn) [BW3, (4-Bromophenyl)-3-(2-Oxocyclohexyl) Pyrrolidine-2,5-Dione]", "values": [{"measurement": "IC50 (DPPH)", "setting": "DPPH scavenging activity", "value": 15.93, "unit": "µg/mL"}, {"measurement": "(%) DPPH inhibitions", "setting": "DPPH scavenging activity; 31.25 µg/ml", "value": "57.69 ± 0.77^∗∗∗ %"}, {"measurement": "(%) DPPH inhibitions", "setting": "DPPH scavenging activity; 62.50 µg/ml", "value": "66.67 ± 0.61^∗∗∗ %"}, {"measurement": "(%) DPPH inhibitions", "setting": "DPPH scavenging activity; 125 µg/ml", "value": "71.79 ± 0.63^∗∗ %"}, {"measurement": "(%) DPPH inhibitions", "setting": "DPPH scavenging activity; 250 µg/ml", "value": "76.90 ± 0.48^∗ %"}, {"measurement": "(%) DPPH inhibitions", "setting": "DPPH scavenging activity; 500 µg/ml", "value": "83.03 ± 0.48^∗ %"}, {"measurement": "IC50 (α-amylase)", "setting": "α-amylase", "value": 18.20, "unit": "µg/mL"}, {"measurement": "% inhibitions (α-amylase)", "setting": "α-amylase; 31.25 µg/ml", "value": "54.67 ± 0.35^∗∗∗ %"}, {"measurement": "% inhibitions (α-amylase)", "setting": "α-amylase; 62.50 µg/ml", "value": "62.16 ± 0.12^∗∗∗ %"}, {"measurement": "% inhibitions (α-amylase)", "setting": "α-amylase; 125 µg/ml", "value": "67.62 ± 0.03^∗∗∗ %"}, {"measurement": "% inhibitions (α-amylase)", "setting": "α-amylase; 250 µg/ml", "value": "71.36 ± 1.15^∗∗∗ %"}, {"measurement": "% inhibitions (α-amylase)", "setting": "α-amylase; 500 µg/ml", "value": "75.35 ± 0.89^∗∗∗ %"}, {"measurement": "OGTT blood glucose, 0 minutes", "setting": "mice; 0 minutes", "value": 156.2, "unit": "mg/dL"}, {"measurement": "OGTT blood glucose, 30 minutes", "setting": "mice; 30 minutes", "value": 174.1, "unit": "mg/dL"}, {"measurement": "OGTT blood glucose, 60 minutes", "setting": "mice; 60 minutes", "value": 196.3, "unit": "mg/dL"}, {"measurement": "OGTT blood glucose, 120 minutes", "setting": "mice; 120 minutes", "value": 145.4, "unit": "mg/dL"}, {"measurement": "IC50 (α-glucosidase)", "setting": "α-glucosidase", "value": 12.15, "unit": "µg/mL"}, {"measurement": "% inhibitions (α-glucosidase)", "setting": "α-glucosidase; 31.25 µg/ml", "value": "57.47 ± 0.56^∗∗∗ %"}, {"measurement": "% inhibitions (α-glucosidase)", "setting": "α-glucosidase; 62.50 µg/ml", "value": "63.28 ± 0.57^∗∗∗ %"}, {"measurement": "% inhibitions (α-glucosidase)", "setting": "α-glucosidase; 125 µg/ml", "value": "67.90 ± 0.96^∗∗∗ %"}, {"measurement": "% inhibitions (α-glucosidase)", "setting": "α-glucosidase; 250 µg/ml", "value": "72.08 ± 0.47^∗∗∗ %"}, {"measurement": "% inhibitions (α-glucosidase)", "setting": "α-glucosidase; 500 µg/ml", "value": "77.85 ± 2.24^∗∗∗ %"}, {"measurement": "Change in body weight", "setting": "[1]; dose 31.25 μg/kg", "value": "−8.4", "unit": "Gm"}, {"measurement": "Decrease in blood glucose after 15 days", "setting": "[1]; dose 31.25 μg/kg", "value": -39, "unit": "mg/dL"}, {"measurement": "Blood glucose level, 0 day", "setting": "[1]; dose 31.25 μg/kg", "value": 439, "unit": "mg/dL"}, {"measurement": "Blood glucose level, 4th day", "setting": "[1]; dose 31.25 μg/kg", "value": 446, "unit": "mg/dL"}, {"measurement": "Blood glucose level, 7th day", "setting": "[1]; dose 31.25 μg/kg", "value": 457, "unit": "mg/dL"}, {"measurement": "Blood glucose level, 10th day", "setting": "[1]; dose 31.25 μg/kg", "value": 468, "unit": "mg/dL"}, {"measurement": "Blood glucose level, 15th day", "setting": "[1]; dose 31.25 μg/kg", "value": 478, "unit": "mg/dL"}, {"measurement": "Change in body weight", "setting": "[1]; dose 62.5 μg/kg", "value": "−6.2", "unit": "Gm"}, {"measurement": "Decrease in blood glucose after 15 days", "setting": "[1]; dose 62.5 μg/kg", "value": -56, "unit": "mg/dL"}, {"measurement": "Blood glucose level, 0 day", "setting": "[1]; dose 62.5 μg/kg", "value": 443, "unit": "mg/dL"}, {"measurement": "Blood glucose level, 4th day", "setting": "[1]; dose 62.5 μg/kg", "value": 465, "unit": "mg/dL"}, {"measurement": "Blood glucose level, 7th day", "setting": "[1]; dose 62.5 μg/kg", "value": 478, "unit": "mg/dL"}, {"measurement": "Blood glucose level, 10th day", "setting": "[1]; dose 62.5 μg/kg", "value": 493, "unit": "mg/dL"}, {"measurement": "Blood glucose level, 15th day", "setting": "[1]; dose 62.5 μg/kg", "value": 499, "unit": "mg/dL"}, {"measurement": "Change in body weight", "setting": "[1]; dose 125 μg/kg", "value": "+5.3 Gm"}, {"measurement": "Decrease in blood glucose after 15 days", "setting": "[1]; dose 125 μg/kg", "value": -29, "unit": "mg/dL"}, {"measurement": "Blood glucose level, 0 day", "setting": "[1]; dose 125 μg/kg", "value": 387, "unit": "mg/dL"}, {"measurement": "Blood glucose level, 4th day", "setting": "[1]; dose 125 μg/kg", "value": 437, "unit": "mg/dL"}, {"measurement": "Blood glucose level, 7th day", "setting": "[1]; dose 125 μg/kg", "value": 430, "unit": "mg/dL"}, {"measurement": "Blood glucose level, 10th day", "setting": "[1]; dose 125 μg/kg", "value": 424, "unit": "mg/dL"}, {"measurement": "Blood glucose level, 15th day", "setting": "[1]; dose 125 μg/kg", "value": 416, "unit": "mg/dL"}, {"measurement": "Change in body weight", "setting": "[1]; dose 250 μg/kg", "value": "−5.1", "unit": "Gm"}, {"measurement": "Decrease in blood glucose after 15 days", "setting": "[1]; dose 250 μg/kg", "value": 35, "unit": "mg/dL"}, {"measurement": "Blood glucose level, 0 day", "setting": "[1]; dose 250 μg/kg", "value": 431, "unit": "mg/dL"}, {"measurement": "Blood glucose level, 4th day", "setting": "[1]; dose 250 μg/kg", "value": 419, "unit": "mg/dL"}, {"measurement": "Blood glucose level, 7th day", "setting": "[1]; dose 250 μg/kg", "value": 411, "unit": "mg/dL"}, {"measurement": "Blood glucose level, 10th day", "setting": "[1]; dose 250 μg/kg", "value": 403, "unit": "mg/dL"}, {"measurement": "Blood glucose level, 15th day", "setting": "[1]; dose 250 μg/kg", "value": 396, "unit": "mg/dL"}, {"measurement": "Change in body weight", "setting": "[1]; dose 500 μg/kg", "value": "+2.5 Gm"}, {"measurement": "Decrease in blood glucose after 15 days", "setting": "[1]; dose 500 μg/kg", "value": 49, "unit": "mg/dL"}, {"measurement": "Blood glucose level, 0 day", "setting": "[1]; dose 500 μg/kg", "value": 430, "unit": "mg/dL"}, {"measurement": "Blood glucose level, 4th day", "setting": "[1]; dose 500 μg/kg", "value": 420, "unit": "mg/dL"}, {"measurement": "Blood glucose level, 7th day", "setting": "[1]; dose 500 μg/kg", "value": 401, "unit": "mg/dL"}, {"measurement": "Blood glucose level, 10th day", "setting": "[1]; dose 500 μg/kg", "value": 387, "unit": "mg/dL"}, {"measurement": "Blood glucose level, 15th day", "setting": "[1]; dose 500 μg/kg", "value": 381, "unit": "mg/dL"}, {"measurement": "IC50 (ABTS)", "setting": "ABTS scavenging activity", "value": 36.82, "unit": "µg/mL"}, {"measurement": "(%) ABTS inhibitions", "setting": "ABTS scavenging activity; 31.25 µg/ml", "value": "48.42 ± 0.43^ns %"}, {"measurement": "(%) ABTS inhibitions", "setting": "ABTS scavenging activity; 62.50 µg/ml", "value": "53.33 ± 0.66^∗ %"}, {"measurement": "(%) ABTS inhibitions", "setting": "ABTS scavenging activity; 125 µg/ml", "value": "58.40 ± 0.82^∗∗∗ %"}, {"measurement": "(%) ABTS inhibitions", "setting": "ABTS scavenging activity; 250 µg/ml", "value": "64.90 ± 0.45^∗∗∗ %"}, {"measurement": "(%) ABTS inhibitions", "setting": "ABTS scavenging activity; 500 µg/ml", "value": "70.56 ± 1.06^∗∗∗ %"}]}]}
